# In US20060123501A1, “Method for treating inflammatory disorders” (priority 2004, published 2006):
# Assays:
# [1] = system: liver-derived macrophages; experiment: Liver-derived macrophage cell counts in liver sections after i.p. LPS; assay type: in vivo, mouse
# Description: Liver tissue derived from cIAP2^−/− (upper panels) and cIAP2^+/+ mice (lower panels) pre-treated with LPS (35 mg/kg) for 2 hours (a) or 6 hours (b). cell counts (n=5, average of 3 sections (average of 5 fields per section) per mouse, P<0.01) are shown within each anti-F4/80 FITC conjugated antibody stained panel along with the standard deviation.
# To determine the apoptotic sensitivity of cIAP2^−/− macrophages within an LPS-induced pro-inflammatory environment, the peritoneal macrophage cell numbers before and during an endotoxin-elicited response were assessed by trypan blue exclusion, Diff Quik™ staining kit and flow cytometry (using the macrophage marker PE conjugated α-F4/80 antibody). […] However, total lymphocyte cell count numbers (B and T cells) were comparatively unaffected in both animal types (FIG. 5D). In addition, at 5 hours post LPS injection both the peritoneal and splenic macrophages from cIAP2^−/− mice stained ˜100% positive for Annexin V (Table 5). Therefore, peritoneal and splenic macrophages from cIAP2^−/− mice undergoing LPS-induced endotoxic shock were highly sensitive to apoptotic stimuli compared to control littermates, in vivo. Liver-derived macrophages are key mediators of LPS-induced endotoxic shock (7, 12). Therefore, to further investigate the survival status of macrophages within LPS treated cIAP2^−/− mice we examined cell count levels of liver-derived macrophages within liver sections. Macrophage cell count numbers within both cIAP2^−/− and control mice were similar at 2 hours post-IP LPS treatment (FIG. 6A), 235+/−35 and 271+/−29, respectively (n=5, average of 3 sections (average of 5 fields per section) per mouse, P<0.01). However, at the 6 hour time point (FIG. 6B), there was a precipitous drop of liver-derived macrophages of the cIAP2^−/− mice, 21+/−12 versus that of the littermates, 148+/−19 (n=5, average of 3 sections (average of 5 fields per section) per mouse, P<0.01). Therefore, like peritoneal and splenic macrophages, the liver-derived macrophages from cIAP2^−/− are highly sensitive to LPS in vivo.
# [2] = system: xiap, ciap1 and ciap2 mRNA; experiment: iap mRNA levels of LPS-treated peritoneal macrophages (quantitative RT-PCR); assay type: cell-based, mouse
# Description: The iap mRNA levels of LPS-treated peritoneal macrophages derived from wild type C57Bl/6 mice relative to untreated controls were assayed. (A) xiap, ciap1, and ciap2 message levels of macrophages exposed to a range of LPS doses relative to untreated controls. (B) ciap2 mRNA message of macrophages exposed to LPS was assayed over 24 h. Results are mean±s.d. (n=5, average of triplicate wells per mouse, P<0.05).
# LPS-induced activation of macrophages causes the upregulation of a multitude of genes, including the production/release of inflammatory mediators, the upregulation of cell surface receptors and of cell survival proteins. […] Therefore, the iap mRNA levels of LPS-treated macrophages, derived from the peritoneal cavity, were assayed relative to untreated controls. Peritoneal macrophages were cultured at 10^5 cell/well (96 well, flat bottom plate) and exposed to varying concentrations of LPS for 18 hours. […] In contrast, ciap2 levels increased dramatically, up to 30 fold above untreated controls (P<0.01 for all LPS doses) (FIG. 2A). The innate immune system provides protection within the first minutes to hours after a pathogenic challenge.
# mRNA was extracted from mouse embryonic fibroblasts or peritoneal macrophages using Qiagen Rneasy 96 wells extraction kit (Qiagen, Mississauga, ON, Canada) and run on a TaqMan® instrument (Perkin-Elmer, Foster City, Calif.) using specific DNA probes for murine xiap, ciap1 and 2 and the TaqMan® EZ RT-PCR kit (Qiagen, Mississauga, ON, Canada).
# splenic B cells = experiment: Proliferation of splenic B cells cultured with LPS; assay type: cell-based, mouse; conditions: cIAP2−/− splenic B cells; LPS 0.1 to 100 μg/ml
# Description: Spleen- and peritoneal-derived macrophage cell count numbers are shown (A) for cIAP2^−/−, cIAP2^+/− and cIAP2^+/+ mice (n=10). Both cIAP2^−/− and littermate control-derived macrophages stained for the LPS binding surface receptor CD14 (B). The proliferation of B cells for cIAP2^−/− mice and littermate controls of cIAP2^+/+ after culturing with the indicated range of LPS doses (n=6) (C). Cultured macrophages from cIAP2^−/− or littermate control cIAP2^+/+ mice were exposed to LPS for 10 h and subsequently IL-1β (D) or TNF-α (E) levels were measured by ELISA (n=6). Additionally, macrophages were exposed to the indicated range of LPS doses for 24 h and IL-1β (F) or TNF-α (G) levels were determined (n=6). Results are mean±s.d. in triplicate per mouse, P<0.01
# This dysfunction may be correlated to a reduced initial number of macrophages, to a block in the LPS-induced signaling pathway, or to an increased apoptotic susceptibility of the cIAP2^−/− macrophages. […] The cIAP2^−/− mice and wild-type macrophages also stained similarly for the LPS-binding receptor, CD14 (FIG. 4B).
# [3] = wild type peritoneal macrophages, LPS 0.1 ng/ml to 10 mg/ml, 18 hours
substance,measurement,setting,value
lipopolysaccharide [LPS],Liver macrophage cell count,"[1]; cIAP2−/− mice, 2 hours post-IP LPS (35 mg/kg)",235+/−35
same,Liver macrophage cell count,"[1]; cIAP2−/− mice, 6 hour time point post LPS (35 mg/kg)",21+/−12
same,Liver macrophage cell count,"[1]; control mice, 2 hours post-IP LPS (35 mg/kg)",271+/−29
same,Liver macrophage cell count,"[1]; littermates, 6 hour time point post LPS (35 mg/kg)",148+/−19
same,ciap2 mRNA upregulation above untreated controls,"[2]; 100 ng/1 ml LPS, within 1 hour, maintained for 24 hours",> 20 fold
same,increase of ciap2 message above untreated controls,"[2]; peritoneal-derived macrophages, in less than one hour",2o
same,Xiap and ciap1 message levels,[2]; [3],remained relatively unchanged
same,ciap2 mRNA level increase above untreated controls,[2]; [3],up to 30 fold
same,B cell proliferation in response to LPS,splenic B cells,proliferated normally
